# Results published in PubChem BioAssay (NCI).
#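 How tested: cells in 96-well plates exposed to compound for 48 hours at five concentrations. GI50 = concentration required for 50% inhibition of growth. The concentration for full growth arrest is given as TGI.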
# Tests used:
# Assay in all cases: growth of human tumour cells (NCI), 48 h
# [1] = system: SNB-78 CNS
# [2] = system: SF-539 CNS
# [3] = system: SNB-75 CNS
# [4] = system: SK-MEL-2 melanoma
# [5] = system: DMS 114 small cell lung
# [6] = system: KM12 colon
# [7] = system: T-47D breast
# [8] = system: TK-10 renal
# [9] = system: LOX IMVI melanoma
# [10] = system: OVCAR-4 ovarian
SMILES,TGI [1] [µM],TGI [2] [µM],TGI [3] [µM],TGI [4] [µM],TGI [5] [µM],TGI [6] [µM],GI50 [7] [µM],TGI [7] [µM],GI50 [2] [µM],GI50 [8] [µM],TGI [8] [µM],GI50 [3] [µM],GI50 [9] [µM],TGI [9] [µM],GI50 [4] [µM],GI50 [10] [µM],TGI [10] [µM],GI50 [6] [µM]
COc1ccc(Br)c(CN2CCc3ccccc32)c1OS(=O)(=O)c1ccc(C)cc1,> 100,57.8,88.8,> 100,53.5,> 100,–,–,–,–,–,–,–,–,–,–,–,–
CN1CCN(C(=O)c2ccc(NC(=O)Nc3ccc(-c4nc(N5CCOCC5)c5cccn5n4)cc3)cc2)CC1,–,0.393,0.0684,1.39,–,13.7,0.0126,0.0567,0.0481,0.18,0.874,0.0134,0.0206,1.74,0.0596,0.0149,0.095,0.0787
COc1ccc(N2C(=O)[C@@H](N=[N+]=[N-])[C@@H]2[C@H]2COC(C)(C)O2)cc1,> 100,> 100,> 100,> 100,> 100,> 100,–,–,–,–,–,–,–,–,–,–,> 100,–
O=C(O)c1c2c(cc3c(=O)c4ccccc4[nH]c13)CCCC2,> 100,> 100,> 100,> 100,–,–,–,–,–,–,> 100,–,–,> 100,–,–,–,–
CC(C)C[C@H](NC(=O)Cn1cccc(CNC(=O)c2ccccc2)c1=O)B(O)O,–,0.454,2.33,2.79,–,3,0.335,2.82,0.133,0.55,4.75,0.32,0.244,0.811,0.384,0.897,> 77,0.649
COc1ccc(-c2cc3ccccc3[nH]c2=O)cc1OC,> 100,> 100,> 100,> 100,–,> 100,–,–,–,–,> 100,–,–,> 100,–,–,> 100,–
CC1=NN(c2ccccc2)C(=O)C12[C@H](c1ccccc1)C2(C#N)C#N (some centres undefined),34,27.7,19.3,16.7,–,25.1,–,–,–,–,25,–,–,4.63,–,–,17.5,–
CC1=C(CO)C(=O)O[C@@H]([C@@H](C)[C@H]2CC[C@H]3[C@@H]4C[C@H]5O[C@]56[C@@H](O)C=CC(=O)[C@]6(C)[C@H]4CC[C@]23C)C1,–,2.3,3.25,1.93,1.95,1.82,0.5,2.5,–,–,1.99,–,0.172,0.547,–,–,1.8,–
COc1cc(Cc2c(C)cc(OC)c3[nH]c4ccccc4c23)cc2c1[nH]c1ccccc12,17,9.23,–,11.6,> 25,15,–,–,4.61,12,> 25,–,3.85,8.6,3.97,–,–,5.43
O=C1C(Cl)=C(Cl)C(=O)N1c1ccc(Cl)c(Cl)c1Cl,> 100,> 100,> 100,> 100,> 100,> 100,–,–,–,–,> 100,–,–,> 100,–,–,> 100,–
